Values of other authors as cited in patent publication EP1574563B1, “Use of detergent tablets” (UNILEVER N.V., priority 2004, dated 2005).
Where two headings read alike, the source gives them in different places.

[1] = other common materials, by contrast, at 20°C

| Water Solubility (g/100g) (highly water-soluble materials, grams of solid required to form a saturated solution in 100 grams of water at 20°C) | SMILES | Water Solubility (g/100g) [1] |
| --- | --- | --- |
|  | O=BO[O-].[Na+] [Sodium perborate anhydrous] | 3.7 g/100g |
|  | O=P(O)(O)OP(=O)(O)OP(=O)(O)O [Sodium tripolyphosphate anhydrous] | 15 g/100g |
| >100 g/100g | NC(N)=O [Urea] |  |
